In patent US11325907B2, “Crystal form of 1H-imidazo[4,5-b]pyridine-2(3H)-one compound and preparation process therefor” (MEDSHINE DISCOVERY INC., priority 2018, dated 2022):

Legend:
Type in all cases: physicochemical
[1] = Solid stability test under accelerated conditions (40° C./Relative Humidity 75%, sealed)
Procedure: (§1) Content Determination Method
(§2) Device: Agilent 1260 High Performance Liquid Chromatograph with DAD detector or Shimadzu LC-20A High Performance Liquid Chromatograph with PDA detector
(§3) Detailed Chromatographic parameters are as follows:
(§4) Chromatographic column: Agilent Eclipse plus C18 (4.6 mm×150 mm, 3.5 μm)
(§5) Column temperature: 40° C.
(§6) Detecting wavelength: 230 nm
(§7) Mobile Phase A: 0.04% trifluoroacetic acid aqueous solution (V/V)
(§8) Mobile Phase B: acetonitrile
(§9) Diluent: acetonitrile: purified water=3:1 (v/v)
(§10) Probe Wash: acetonitrile: purified water=3:1 (v/v)
(§11) Gradient elution procedure: […]
Each layer of the low-density polyethylene bag was buckled and sealed respectively and then the bag was placed in an aluminum foil bag and heat-sealed. The samples were taken on the 1st, 2nd, 3rd and 6th months for testing, and the test results were compared with the initial test results of day 0.

[2] = as above; conditions: 6th month
[3] = Solid stability test at high temperature, high humidity and strong light
Procedure: as §1, §2, §3, §4, §5, §6, §7, §8, §9, §10, §11
The samples placed under high temperature and high humidity conditions were placed in a desiccator for inspection, and the samples were taken on the 5th, 10th and 30th days for testing, and the test results were compared with the initial test results of day 0. The samples placed under strong light were covered with a transparent lid with a sealing film, and the samples were taken on the 5th and 10th days for testing, and the test results were compared with the initial test results on day 0.

[4] = Stability tests of Crystal Form A in different solvents; conditions: for Status (after 2 days): 50 mg, stirred at 40° C. for 2 days
Procedure: The solids in all samples were collected and dried in vacuum drying oven (40° C.) overnight. The crystal forms were tested for XRPD.

[5] = Hygroscopicity test (Dynamic Vapor Sorption); conditions: 25° C. and 80% RH, DVS
Procedure: Device: SEM Advantage-1 Dynamic Vapor Sorption apparatus
Testing conditions: The sample (10-20 mg) is placed in DVS sample disk for testing.
Balance: dm/dt=0.01%/min (min: 10 min, max: 180 min)
Drying: drying at 0% RH for 120 min
RH (%) testing gradient: 10%
RH (%) testing gradient range: 0% -90%-0%
The hygroscopicity is categorized as follows:
SEM DVS Advantage-1 Dynamic Vapor Sorption instrument

[6] = Batch 1, 40° C./Relative Humidity 75%, Sealed, 1st month
[7] = Batch 1, 40° C./Relative Humidity 75%, Sealed, 2nd month
[8] = Batch 1, 40° C./Relative Humidity 75%, Sealed, 3rd month
[9] = Batch 1, 40° C./Relative Humidity 75%, Sealed, 6th month
[10] = Batch 2, 40° C./Relative Humidity 75%, Sealed, 1st month
[11] = Batch 2, 40° C./Relative Humidity 75%, Sealed, 2nd month
[12] = Batch 2, 40° C./Relative Humidity 75%, Sealed, 3rd month
[13] = Batch 2, 40° C./Relative Humidity 75%, Sealed, 6th month
[14] = Batch 3, 40° C./Relative Humidity 75%, Sealed, 1st month
[15] = Batch 3, 40° C./Relative Humidity 75%, Sealed, 2nd month
[16] = Batch 3, 40° C./Relative Humidity 75%, Sealed, 3rd month
[17] = Batch 3, 40° C./Relative Humidity 75%, Sealed, 6th month
[18] = Batch 1, 40° C./Relative Humidity 75%
[19] = Batch 3, 40° C./Relative Humidity 75%
[20] = High humidity (Room Temperature/Relative Humidity 92.5%, Open), Day 5
[21] = High humidity (Room Temperature/Relative Humidity 92.5%, Open), Day 10
[22] = High humidity (Room Temperature/Relative Humidity 92.5%, Open), Day 30
[23] = High temperature (60° C., Open), Day 5
[24] = High temperature (60° C., Open), Day 10
[25] = High temperature (60° C., Open), Day 30
[26] = Strong light (4500 ± 500 lux, 90 μw/cm^2, Sealed), Day 5
[27] = Strong light (4500 ± 500 lux, 90 μw/cm^2, Sealed), Day 10

Q: Which Appearance [1, 6] does the source give for CCOc1cc([C@@H](CS(C)(=O)=O)n2c(=O)[nH]c3c(C)c(-c4ccccc4F)cnc32)ccc1OC [Crystal Form A of Compound 1] here?
A: White powder

Q: And the Content [1, 6]?
A: 99.3%

Q: What about the “Total Impurity” value [1, 6] of the same compound?
A: 0.09%

Q: What about the Appearance [1, 7] of the same compound?
A: White powder

Q: And the Content [1, 7]?
A: 99.1%

Q: What about the “Total Impurity” value [1, 7] of the same compound?
A: 0.09%

Q: And the Appearance [1, 8]?
A: White powder

Q: And the Content [1, 8]?
A: 99.5%

Q: And the “Total Impurity” value [1, 8]?
A: 0.09%

Q: And the Content [1, 9]?
A: 100.1%

Q: And the “Total Impurity” value [1, 9]?
A: 0.10%

Q: And the Appearance ([1]; Batch 1, Day 0)?
A: White powder

Q: What about the Content ([1]; Batch 1, Day 0) of the same compound?
A: 99.4%

Q: And the “Crystal Form (XRPD)” value ([1]; Batch 1, Day 0)?
A: Crystal Form A

Q: And the “Total Impurity” value ([1]; Batch 1, Day 0)?
A: 0.09%

Q: And the Appearance [1, 10]?
A: White powder

Q: And the Content [1, 10]?
A: 99.1%

Q: What about the “Total Impurity” value [1, 10] of the same compound?
A: 0.11%

Q: And the Appearance [1, 11]?
A: White powder

Q: What about the Content [1, 11] of the same compound?
A: 99.0%

Q: And the “Total Impurity” value [1, 11]?
A: 0.11%

Q: And the Appearance [1, 12]?
A: White powder

Q: What about the Content [1, 12] of the same compound?
A: 99.2%

Q: And the “Total Impurity” value [1, 12]?
A: 0.10%

Q: And the Appearance [1, 13]?
A: White powder

Q: What about the Content [1, 13] of the same compound?
A: 100.5%

Q: What about the “Crystal Form (XRPD)” value [1, 13] of the same compound?
A: Crystal Form A

Q: What about the “Total Impurity” value [1, 13] of the same compound?
A: 0.12%

Q: What about the Appearance ([1]; Batch 2, Day 0) of the same compound?
A: White powder

Q: And the Content ([1]; Batch 2, Day 0)?
A: 99.4%

Q: And the “Crystal Form (XRPD)” value ([1]; Batch 2, Day 0)?
A: Crystal Form A

Q: What about the “Total Impurity” value ([1]; Batch 2, Day 0) of the same compound?
A: 0.10%

Q: And the Appearance [1, 14]?
A: White powder

Q: What about the Content [1, 14] of the same compound?
A: 98.8%

Q: What about the “Total Impurity” value [1, 14] of the same compound?
A: 0.16%

Q: And the Appearance [1, 15]?
A: White powder

Q: What about the Content [1, 15] of the same compound?
A: 98.9%

Q: And the “Total Impurity” value [1, 15]?
A: 0.16%

Q: And the Appearance [1, 16]?
A: White powder

Q: What about the Content [1, 16] of the same compound?
A: 99.2%

Q: And the “Total Impurity” value [1, 16]?
A: 0.16%

Q: What about the Content [1, 17] of the same compound?
A: 100.0%

Q: And the “Total Impurity” value [1, 17]?
A: 0.11%

Q: And the Appearance ([1]; Batch 3, Day 0)?
A: White powder

Q: What about the Content ([1]; Batch 3, Day 0) of the same compound?
A: 99.5%

Q: And the “Crystal Form (XRPD)” value ([1]; Batch 3, Day 0)?
A: Crystal Form A

Q: And the “Total Impurity” value ([1]; Batch 3, Day 0)?
A: 0.11%

Q: And the “Solid stability (conclusion)” value ([1]; accelerated conditions of 40° C./Relative Humidity 75%)?
A: good stability

Q: And the Appearance [2, 18]?
A: White powder

Q: What about the “Crystal Form (XRPD)” value [2, 18] of the same compound?
A: Crystal Form A

Q: What about the Appearance [2, 19] of the same compound?
A: White powder

Q: And the “Crystal Form (XRPD)” value [2, 19]?
A: Crystal Form A

Q: What about the Appearance ([3]; Day 0 (initial)) of the same compound?
A: White

Q: And the Content ([3]; Day 0 (initial))?
A: 99.5%

Q: What about the “Total Impurity” value ([3]; Day 0 (initial)) of the same compound?
A: 0.11%

Q: And the Appearance [3, 20]?
A: White

Q: What about the Content [3, 20] of the same compound?
A: 99.0%

Q: And the “Total Impurity” value [3, 20]?
A: 0.16%

Q: And the Appearance [3, 21]?
A: White

Q: What about the Content [3, 21] of the same compound?
A: 98.9%

Q: What about the “Total Impurity” value [3, 21] of the same compound?
A: 0.16%

Q: What about the Appearance [3, 22] of the same compound?
A: White

Q: What about the Content [3, 22] of the same compound?
A: 99.0%

Q: What about the “Total Impurity” value [3, 22] of the same compound?
A: 0.16%

Q: What about the Appearance [3, 23] of the same compound?
A: White

Q: What about the Content [3, 23] of the same compound?
A: 99.2%

Q: And the “Total Impurity” value [3, 23]?
A: 0.16%

Q: What about the Appearance [3, 24] of the same compound?
A: White

Q: And the Content [3, 24]?
A: 98.8%

Q: And the “Total Impurity” value [3, 24]?
A: 0.16%

Q: And the Appearance [3, 25]?
A: White

Q: And the Content [3, 25]?
A: 99.0%

Q: What about the “Total Impurity” value [3, 25] of the same compound?
A: 0.16%

Q: What about the Appearance [3, 26] of the same compound?
A: White

Q: And the Content [3, 26]?
A: 98.8%

Q: And the “Total Impurity” value [3, 26]?
A: 0.11%

Q: And the Appearance [3, 27]?
A: White

Q: And the Content [3, 27]?
A: 98.6%

Q: And the “Total Impurity” value [3, 27]?
A: 0.11%

Q: And the “Solid stability (conclusion)” value ([3]; high temperature, high humidity or strong light conditions)?
A: good stability

Q: And the “Status (after 2 days)” value ([4]; Acetone 0.4 mL)?
A: Suspension

Q: What about the “Status (after 2 days)” value ([4]; Acetone:Water (1:2) 0.4 mL) of the same compound?
A: Suspension

Q: What about the “Status (after 2 days)” value ([4]; Acetonitrile 0.4 mL) of the same compound?
A: Suspension

Q: And the “Status (after 2 days)” value ([4]; Acetonitrile:Water (1:1) 0.4 mL)?
A: Suspension

Q: What about the “Status (after 2 days)” value ([4]; Ethanol 0.4 mL) of the same compound?
A: Suspension

Q: What about the “Status (after 2 days)” value ([4]; Ethanol:Water (3:1) 0.4 mL) of the same compound?
A: Suspension

Q: What about the “Status (after 2 days)” value ([4]; Ethyl Acetate 0.4 mL) of the same compound?
A: Suspension

Q: And the “Status (after 2 days)” value ([4]; Methanol 0.4 mL)?
A: Suspension

Q: What about the “Status (after 2 days)” value ([4]; Methanol:Water (3:1) 0.4 mL) of the same compound?
A: Suspension

Q: What about the “Status (after 2 days)” value ([4]; Tetrahydrofuran 0.3 mL) of the same compound?
A: Suspension

Q: And the “Stability in solvents (conclusion)” value ([4]; alcohol solvent, acetonitrile, acetone, ethyl acetate, tetrahydrofuran and mixed solvents with water)?
A: good stability

Q: And the “Hygroscopic Category” value [5]?
A: no or little hygroscopicity

Q: What about the “ΔW (hygroscopic weight gain)” value [5] of the same compound?
A: 0.08%
